{
  "source": "patent US6531468B2",
  "about": "“Diazabicyclooctane derivatives and therapeutic uses thereof” (Pfizer Inc, priority 2000, dated 2003)",
  "note": "Where a name gives a salt, the structure may show the parent alone.",
  "data": [
    {"compound": "Fc1ccc(N2CC3CCC2CN3)cc1", "note": "(stereo not shown) (as salt: salt)", "values": [
      {"measurement": "melting point", "result": "154 to 156", "unit": "°C"}
    ]}
  ]
}
